Measurements from patent US20080220416A1, “Compositions for Inhibiting Cell Growth and Inducing Apoptosis in Cancer Cells and Methods of Use Thereof” (THE BOARD OF TRUSTEES OF THE UNIVERSITY OF ILLINOI, priority 2004, published 2008).
Square brackets hold non-standard residues; d marks the D form. Peptide text beside a SMILES is read from it. * marks the point of attachment. Nle = CCCC[C@H](N)C(=O)O; Cbz = O=C(OCc1ccccc1)*

Tests used:
RPMI8226 myeloma cells = assay: Apoptosis of myeloma cell line RPMI8226 (Annexin V-FITC); format: cell-based; conditions: for apoptotic response: after 18 hrs
Procedure: (§1) The cells were evaluated for induction of NOXA and an increase in cleaved caspase 3, by Western blot analysis and for cell viability using APO TARGET Annexin V-FITC staining kits (Biosource) as described above. The caspase 3 antibody was purchased from Abcam (Cambridge, Mass.). […] At a concentration of 10 μM, bortezomib induces approximately equal NOXA levels compared to the other proteasome inhibitor tested (MG-132) and the dual inhibitor z-Leu-Leu-Nle-CHO. The induction of NOXA coincided with the appearance of cleaved caspase 3, which is involved in the final stage of cell death. […] FIG. 12 is graph showing representative results from bortezomib treatment. The induction of apoptosis is concentration-dependent (FIG. 12); with doses as low as 0.01 μM bortezomib trigger significant apoptosis (p<0.05).

NOXA = NOXA induction in multiple myeloma cell lines (Western blot); format: cell-based; conditions: RPMI8226 and U266; 24 hours; bortezomib 0.01 to 10 μM, MG-132 10 μM, z-Leu-Leu-Nle-CHO 10 μM
Procedure: as §1, with “Two different multiple myeloma cell lines (RMP18226 and U266) (ATCC, Rockville, Md.) were treated for 24 hours with various concentrations of the proteasome inhibitors bortezomib (0.01 to 10 μM) and MG-132 (10 μM), or the dual inhibitor z-Leu-Leu-Nle-CHO (10 μM). The cells” for “The cells”

cyclins A and B1 = assay: Cyclin expression in MDA-MB231 cells (ribonuclease protection assay, Western blot); format: cell-based, human
Procedure: To explore the effects on Notch-1 siRNA on the expression of cyclins, the main regulators of cell cycle progression, ribonuclease protection assays and Western blots on Notch-1 siRNA-treated cells were performed. Transfection of the MBA-MD231 cells with Notch-1 siRNA (5′-AAGTGTCTGAGGCCAGCAAGA-3′) (SEQ ID NO. 1) or control siRNA (5′-AACAGTCGCGTTTGCGACTGG-3′) (SEQ ID NO: 5), was performed as described above. Ribonuclease protection assays were performed by first preparing total RNA using a RNeasy Mini kit (QIAGEN Cat. #74104) according to the manufacturer's instructions. The multi-probe template set hCYC-1 (containing DNA templates for cyclin A, cyclin B, cyclin C, cyclin D1, cyclin D2, cyclin D3, cyclin A1 L32 and GAPDH) was purchased from BD Biosciences (Cat. # 556189). The DNA template was used to synthesize a [^32P]UTP (10 mCi/ml, Amersham Bioscience) labelled probe in the presence of a GACU pool using a […] RNA-polymerase (BD Bioscience RiboQuant RPA starter package, Cat. # 556144). Hybridization with 20 μg of each target RNA was performed at 56° C. overnight, followed by digestion with RNAse A and T1 according to the BD Bioscience standard protocol. After proteinase K treatment, samples were precipitated, loaded on a 4.75% acrylamide-urea gel, and run at 55 W with 0.5×TBE. Gels were dried in the gel dryer under vacuum for 2 h at 90° C. Then gels were exposed on Kodak film (Eastman Kodak, Rochester, N.Y.) with intensifying screens and developed at −70° C. Western blots were performed as described above. […] Western blot data confirmed these findings. […] CDK1 levels were only modestly affected. Cyclin A/cdk2 phosphorylates E2F-1/DP complexes at the end of S-phase, inactivating them. This prevents a re-initiation of DNA replication and assures that the genome is replicated only once at each S phase. Failure of cyclin A/cdk2 to inactivate E2F results in inappropriately persistent E2F activity, which may lead to apoptosis. E2F-1 is known to upregulate its own transcription. […]

Row | Compound | lowest dose triggering significant apoptosis (p<0.05) (RPMI8226 myeloma cells) | apoptotic response (RPMI8226 myeloma cells) | NOXA induction (NOXA) | cyclin A and cyclin B protein (Western blot) (cyclins A and B1; 0.5 or 1 μM, 24 h) | cyclin B1 protein (Western blot) (cyclins A and B1) | cyclin mRNA expression (ribonuclease protection assay) (cyclins A and B1)
1 | CC(C)C[C@H](NC(=O)[C@H](Cc1ccccc1)NC(=O)c1cnccn1)B(O)O [bortezomib, N-(2-pyrazine)carbonyl-L-phenylalanine-L-leucine boronic acid] | 0.01 µM | triggered significant apoptotic response after 18 hrs | induces NOXA in a concentration dependent manner | – | – | –
2 | CCCC[C@@H](C=O)NC(=O)[C@H](CC(C)C)NC(=O)[C@H](CC(C)C)NC(=O)OCc1ccccc1 [z-Leu-Leu-Nle-CHO, N-benzyloxycarbonyl-leucyl-leucyl-norleucinal] (Cbz-Leu-Leu-[Nle]-aldehyde) | – | triggered significant apoptotic response after 18 hrs | found to induce NOXA | dramatically reduced the levels of cyclin A protein at 0.5 μM, whereas cyclin B was decreased at 1 μM | – | –
3 | 5′-AAGTGTCTGAGGCCAGCAAGA-3′ [Notch-1 siRNA] | – | – | – | – | striking decrease in the steady state levels of cyclin B1 at 48 hours | decreases the expression of mRNAs for cyclins B1 and A, but not C, D, or A1
4 | CC(C)C[C@@H](C=O)NC(=O)[C@H](CC(C)C)NC(=O)[C@H](CC(C)C)NC(=O)OCc1ccccc1 [MG-132, benzoxycarbonyl-Leucyl-Leucyl-Leucyl-aldehyde] (Cbz-Leu-Leu-Leu-aldehyde) | – | triggered significant apoptotic response after 18 hrs | found to induce NOXA | – | – | –
